# Data: publication PMC10283505, “CVM-1118 (foslinanib), a 2-phenyl-4-quinolone derivative, promotes apoptosis and inhibits vasculogenic mimicry via targeting TRAP1” (Pathology and Oncology Research, 2023)
# Entries after “also recorded” stand apart in the source; their conditions may differ.
# How the values were obtained:
# Nodal = assay: qPCR analysis of Nodal expression; format: cell-based, human; conditions: C8161, 10 nM, 8–72 h
# Description: For the qPCR analysis of Nodal and Notch expression, total RNA was isolated from cells using the PerfectPure RNA Cell Isolation kit (5Prime) and then reverse-transcribed using 1 μg RNA, RT master mix cocktail and MMLV reverse transcriptase. qPCR was performed on a 7500 Real-Time PCR System (Life Technologies) using manufacturer recommended protocol. TaqMan gene expression human primer/probe sets (Applied Biosystems) utilized were Nodal (Hs00250630_s1) and Notch4 (Hs00270200_m1). Target gene expression was normalized to appropriate house-keeping genes (e.g., RPLP0 or GAPDH). Data was analyzed using Life Technologies Sequence Detection Software.
# RXF 393 = assay: NCI 60 cytotoxicity screening; format: cell-based; conditions: Homo sapiens; RXF 393, Renal
# TRAP1 = molecular target: T1, TRAP1 (Homo sapiens, UniProt Q12931); assay: In vitro ATPase assay; format: biochemical; conditions: data not shown
# T1 sequence (Q12931 60-704): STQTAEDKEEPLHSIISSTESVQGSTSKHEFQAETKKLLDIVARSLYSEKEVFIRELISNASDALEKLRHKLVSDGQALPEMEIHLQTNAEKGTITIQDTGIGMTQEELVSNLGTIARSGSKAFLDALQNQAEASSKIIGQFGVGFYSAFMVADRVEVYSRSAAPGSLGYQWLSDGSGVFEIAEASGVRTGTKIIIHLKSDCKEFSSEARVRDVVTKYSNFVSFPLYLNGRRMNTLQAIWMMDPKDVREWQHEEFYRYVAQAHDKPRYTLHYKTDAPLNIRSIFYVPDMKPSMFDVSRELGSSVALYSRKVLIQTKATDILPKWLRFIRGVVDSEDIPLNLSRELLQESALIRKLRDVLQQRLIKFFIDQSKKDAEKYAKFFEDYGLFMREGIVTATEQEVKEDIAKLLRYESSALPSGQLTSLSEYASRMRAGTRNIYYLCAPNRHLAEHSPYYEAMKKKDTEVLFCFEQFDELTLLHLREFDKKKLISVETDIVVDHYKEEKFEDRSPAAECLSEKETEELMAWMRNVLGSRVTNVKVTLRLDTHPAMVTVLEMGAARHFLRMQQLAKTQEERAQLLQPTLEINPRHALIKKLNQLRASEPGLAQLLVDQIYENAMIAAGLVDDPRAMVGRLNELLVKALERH
# EKVX = assay: NCI 60 cytotoxicity screening; format: cell-based; conditions: Homo sapiens, NSCLC
# [1] = molecular target: T2, human Hsp90 recombinant protein (HSP90AB1) (Homo sapiens, UniProt P08238); assay: Surface plasmon resonance (Biacore); format: binding; conditions: recombinant human Hsp90 beta protein
# T2 construct: purchased Abcam ab131923
# T2 sequence (P08238 whole entry): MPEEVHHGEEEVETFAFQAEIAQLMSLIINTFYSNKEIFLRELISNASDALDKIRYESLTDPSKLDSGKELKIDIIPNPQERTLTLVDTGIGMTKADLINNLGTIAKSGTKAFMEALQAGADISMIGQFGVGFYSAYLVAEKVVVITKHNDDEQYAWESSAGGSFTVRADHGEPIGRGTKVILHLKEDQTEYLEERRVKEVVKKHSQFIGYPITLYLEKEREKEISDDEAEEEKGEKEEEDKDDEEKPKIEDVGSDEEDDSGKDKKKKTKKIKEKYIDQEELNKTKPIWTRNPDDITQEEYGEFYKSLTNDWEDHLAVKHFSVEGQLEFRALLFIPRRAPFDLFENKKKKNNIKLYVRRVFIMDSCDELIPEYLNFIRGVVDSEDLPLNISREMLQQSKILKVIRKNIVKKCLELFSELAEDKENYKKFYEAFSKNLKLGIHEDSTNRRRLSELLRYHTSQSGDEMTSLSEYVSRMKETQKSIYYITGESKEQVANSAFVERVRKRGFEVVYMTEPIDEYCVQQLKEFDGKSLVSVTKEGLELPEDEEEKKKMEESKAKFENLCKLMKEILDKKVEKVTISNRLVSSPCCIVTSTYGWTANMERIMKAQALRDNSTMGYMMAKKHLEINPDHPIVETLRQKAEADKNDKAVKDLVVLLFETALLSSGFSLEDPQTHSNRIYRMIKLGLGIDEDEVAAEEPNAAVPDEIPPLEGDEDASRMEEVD
# Description: To confirm the molecular binding of the targeted protein, Surface Plasmon Resonance (SPR) was performed with a Biacore 3000. TRAP1 recombinant protein (Abcam, ab123775) or human Hsp90 recombinant protein (HSP90AB1, Abcam, ab131923) were immobilized on a CM5 sensor chip surface using the amine coupling method according to the manufacturer’s instruction (Biacore, GE Healthcare). CVM-1125 was dissolved in sodium carbonate buffer (pH 9) and then diluted in HBS-EDTA-P20 buffer to desired concentrations (five serial dilutions from 1 × 10^−5 to 1 × 10^−8 M) and injected at flow 30 μL/min with KINJET 60/180 %pos, analyte position, volume, and dissociation time. Specific binding was calculated using BiaEval 3 software.
Compound,expression of Nodal (mRNA) (Nodal),GI50 (RXF 393) [nM],influence on the ATPase activity of TRAP1 (TRAP1),GI50 (EKVX) [nM],interaction with Hsp90 by SPR [1]
COc1ccc2[nH]c(-c3cccc(F)c3)cc(=O)c2c1OP(=O)(O)O [CVM-1118],decreased,–,–,–,–
COc1ccc2[nH]c(-c3cccc(F)c3)cc(=O)c2c1O [CVM-1125],–,17.5,no influence,46.1,no specific interaction; also recorded: not interacting
